Several values for one entry are separate records, joined by “and”; a condition that tells them apart may be missing. Equal values may be shown once.

Common to all, as to type: in vivo, rat
Data set [1] can be described thus: Concentration of pesticides and metabolites in plasma of rats after 90-day gavage exposure to a pesticide mixture. As to conditions: for Slope (linear fit), concentration in plasma versus level of exposure: exposure expressed as mg/kg per day, concentration as ng/mL, detected values only. How it is done:
(§1) Eight rats were randomly assigned to each of the experimental groups. A low-calorie water gel that contained the pesticides was administered via gavage to these rats three times per week for 90 days. The doses of the pesticides mixture used for exposure were 4, 10, 20, 40, 100, 200, and 400 µg/kg of body weight. The exposure range was set as follows: The lowest dose was the lowest level allowing the detection of pesticides in hair after a 90-day exposure, based on preliminary experiments not detailed here. Testing lower levels would not have been relevant because some compounds would not be detected anymore (analytical limitation). In addition, for some other compounds, no differences were detected in the current experiment between the lowest level of exposure and the background exposure of the controls. The highest dose was set according to toxicity of compounds, which corresponded to 1/20 of the lowest LD50 (carbofuran). The animals were weighed before each administration in order to adapt the amount of pesticide-containing mixture to the animals’ weight.
(§2) The animals were shaved before the experiment began to ensure that the hair collected at the end of the study accurately reflected the 90-day period of exposure. White and black hairs were collected separately, placed in aluminum foil, and stored at −20 °C until analysis. Blood was collected in EDTA tube from the tail vein, 3 h after oral administration on Day 90. Each sampling (500–750 µL) was immediately centrifuged at 5000×g for 3 min at room temperature, and plasma was separated and stored at −80 °C before analysis. For urine collection, the rats were placed in individual metabolic cages (Type 304 stainless steel, Techniplast, Zwaag, Netherlands) immediately after gavage for 24 h (from Day 88 to Day 89). The urine was collected in refrigerated tubes over a 24-h period and was weighed before storage at −20 °C.
(§3) Depending on the compounds, only parent pesticides, only metabolites, or both parent and metabolites were analyzed in the biological matrices. The chemicals were analyzed as previously described (Chata et al. [2016]; Hardy et al. [2015]). Despite the different nature of the biological matrices analyzed (liquid vs. solid), method protocols were developed to ensure similarity so they could be reliably compared to the information obtained from each matrix, thereby ensuring that differences were not likely attributable to analytical bias. […] Because analytical background noise was absent from the chromatograms because tandem mass spectrometry was used, the approaches based on background noise for determining the limit of detection (LOD) were not applicable. The LOD was therefore determined as the lowest concentration that was detected in the samples analyzed during this study. Selectivity was ensured by analyte retention time and by the quantification transition to confirmation transition ratio that had to be lower than the 20% difference from the ratio obtained with standard compounds. The LOD ranged from 0.02 pg/mg for β-endosulfan to 2.7 pg/mg for dichlorodiphenyltrichloroethane (p,p′-DDT) in hair, from 0.2 pg/mL for trifluralin to 13.6 ng/mL for 2-isopropoxyphenol (2-IPP) in urine, and from 2.4 pg/mL for β-endosulfan to 679 pg/mL for p,p′-DDT in plasma. Because the analysis of parent pesticides and metabolites was conducted on the same hair sample, the addition of parent organophosphate isotope-labeled analog standards was not possible because their degradation into non-labeled dialkyl phosphate (DAP) during the analytical procedure would have hindered the analysis of DAP due to exposure. In hair, only organophosphate metabolites (not parents) were therefore quantified, and only qualitative results were obtained for parents.
(§4) The association between the level of exposure and the analyte concentration in the matrix (i.e., hair, urine, and plasma) was assessed by the Pearson product-moment correlation coefficient (R Pearson). […]

The nature of data set [2]: Concentration of pesticides and metabolites in hair of rats after 90-day gavage exposure to a pesticide mixture. Particulars: for Slope (linear fit), concentration in hair versus level of exposure: exposure expressed as mg/kg per day, concentration as pg/mg, detected values only. On the procedure: as §1, §2, §3, §4
The nature of data set [3]: Concentration of pesticides and metabolites in 24-h urine of rats after 90-day gavage exposure to a pesticide mixture. As to conditions: for Slope (linear fit), concentration in urine versus level of exposure: exposure expressed as mg/kg per day, concentration as ng/mL, detected values only; for Concentration range in urine (detection): ND = not detected, whatever the level of exposure. On the procedure: as §1, §2, §3, §4

A short description of data set [4]: Influence of hair pigmentation: concentration in white hair versus pigmented hair. As to conditions: slope close to 1 = poor influence of pigmentation. How it is done:
as §2
The influence of hair pigmentation on pesticide incorporation was assessed by comparing the concentration detected in white hair versus pigmented hair which were collected and analyzed separately from each animal. […] For the majority of the chemicals tested during the current study, pigmentation seemed to have a very limited effect on the concentration in hair, and only few compounds seemed to be pigmentation sensitive.

In the case of `CCCN(CCC)c1c([N+](=O)[O-])cc(C(F)(F)F)cc1[N+](=O)[O-]` [Trifluralin], the “Slope (linear fit), concentration in plasma versus level of exposure” value (shortened to “Slope … in plasma versus level of exposure”) in data set [1] is 1.57. For the same molecule, the results for the “Slope (linear fit), concentration in hair versus level of exposure” value (“Slope … in hair versus level of exposure” for short) in data set [2] and in data set [2] (listed as trifluralin) were 1.107 and 1.11, respectively. Further, in data set [3], the “Slope (linear fit), concentration in urine versus level of exposure” value (“Slope … in urine versus level of exposure” for short) is 4. Also, the “Slope, concentration in white hair versus pigmented hair” value in data set [4] is on record as 0.688.
In the case of `Cl[C@H]1[C@H](Cl)[C@@H](Cl)[C@@H](Cl)[C@H](Cl)[C@H]1Cl` [γ-HCH, γ-hexachlorocyclohexane], in data set [1], the “Slope … in plasma versus level of exposure” value is 47.2. For the same molecule, in data set [2], the “Slope … in hair versus level of exposure” value came out at 119.8. In addition, the “Concentration in urine, single point out of scale” value in data set [3] (dosage of 200 µg/kg, one animal, not presented in Fig. 1) came out at 9 ng/mL. In addition, the “Slope … in urine versus level of exposure” value in data set [3] was 5 715. Besides, the “Slope, concentration in white hair versus pigmented hair” value in data set [4] worked out at 0.969.
In the case of `ClC1=C(Cl)[C@]2(Cl)[C@@H]3[C@@H]4C[C@@H]([C@H]5O[C@@H]45)[C@@H]3[C@@]1(Cl)C2(Cl)Cl` [Dieldrin], the “Slope … in plasma versus level of exposure” value in data set [1] came out at 305. The “Slope … in hair versus level of exposure” value in data set [2] is reported as 427.8. Besides, in data set [3], the “Slope … in urine versus level of exposure” value is 2 069. Moreover, the “Slope, concentration in white hair versus pigmented hair” value in data set [4] worked out at 1.000.
Take `CC1(C)C(C=C(Cl)C(F)(F)F)C1C(=O)O` (stereo not drawn) [ClCF3CA, 3-(2-chloro-3,3,3-trifluoro-1-propenyl)-2,2-dimethylcyclopropane carboxylic acid]: the “Slope … in plasma versus level of exposure” value in data set [1] is listed as 9.79. Moreover, the “Slope … in hair versus level of exposure” value in data set [2] came out at 5.22. Further, the “Slope … in urine versus level of exposure” value in data set [3] is 1.6 E + 05. Moreover, in data set [4], the “Slope, concentration in white hair versus pigmented hair” value is reported as 0.220.
Regarding `Cl[C@H]1[C@H](Cl)[C@@H](Cl)[C@H](Cl)[C@@H](Cl)[C@@H]1Cl` [β-HCH, β-hexachlorocyclohexane], the “Slope … in plasma versus level of exposure” value in data set [1] turned out to be 199. The “Slope … in hair versus level of exposure” value in data set [2] is 612 and 612.6. The “Slope … in urine versus level of exposure” value in data set [3] is recorded as 6 297. Also, the “Slope, concentration in white hair versus pigmented hair” value in data set [4] stood at 1.021.
For the molecule `O=C(Nc1ccc(F)cc1F)c1cccnc1Oc1cccc(C(F)(F)F)c1` [Diflufenican], the “Slope … in plasma versus level of exposure” value in data set [1] worked out at 15.2. In addition, in data set [2], the “Slope … in hair versus level of exposure” value stood at 35.94. For the same molecule, in data set [3], the “Exposure level from which detected in urine” value (shortened to “Exposure level … in urine”) was 20 µg/kg and the “Slope … in urine versus level of exposure” value is given as 99. Moreover, the “Slope, concentration in white hair versus pigmented hair” value in data set [4] worked out at 0.937.
Take `CCOP(=S)(OCC)Oc1cc(C)nc(C(C)C)n1` [Diazinon]: the “Concentration range in plasma (detection)” value in data set [1] (ND = not detected, whatever the level of exposure) is reported as “not detected”.
On to `N#Cc1nn(-c2c(Cl)cc(C(F)(F)F)cc2Cl)c(N)c1[S+]([O-])C(F)(F)F` (stereo not drawn) [Fipronil], for which, in data set [2], the “Slope … in hair versus level of exposure” value was 31.5. Also, in data set [3], the “Exposure level … in urine” value was 10 µg/kg and the “Slope … in urine versus level of exposure” value is 2 016. Also, the “Slope, concentration in white hair versus pigmented hair” value in data set [4] stood at 1.017.
Take `Oc1nc(Cl)c(Cl)cc1Cl` [TCPy, 3,5,6-trichloro-2-pyridinol]: in data set [1], the “Slope … in plasma versus level of exposure” value came to 109. In addition, in data set [2], the “Slope … in hair versus level of exposure” value is recorded as 85.6. Also, the “Slope … in urine versus level of exposure” value in data set [3] is recorded as 2.5 E + 06. The “Slope, concentration in white hair versus pigmented hair” value in data set [4] is given as 0.435.
In the case of `CC1(C)C(C=C(Cl)Cl)C1C(=O)O` (stereo not drawn) [Cl2CA, 3-(2,2-dichlorovinyl)-2,2-dimethylcyclopropane-1-carboxylic acid], the “Slope … in plasma versus level of exposure” value in data set [1] worked out at 139. Further, the “Slope … in hair versus level of exposure” value in data set [2] is recorded as 49.20. Also, in data set [3], the “Slope … in urine versus level of exposure” value came to 1.0 E + 06. In addition, the “Slope, concentration in white hair versus pigmented hair” value in data set [4] was 0.498.
With `O=S1OC[C@@H]2[C@H](CO1)[C@]1(Cl)C(Cl)=C(Cl)[C@]2(Cl)C1(Cl)Cl` (stereo partly drawn) [β-Endosulfan, β-endosulfan], the “Slope … in plasma versus level of exposure” value in data set [1] is on record as 1.50. For the same molecule, the “Slope … in hair versus level of exposure” value in data set [2] came out at 2.71. Further, in data set [3], the “Concentration range in urine (detection)” value is listed as “not detected”. The “Slope, concentration in white hair versus pigmented hair” value in data set [4] stood at 0.965.
On the same counts, the results for `CC(C)Oc1cc(-n2nc(C(C)(C)C)oc2=O)c(Cl)cc1Cl` [Oxadiazon] are 38.5, 11.45, “not detected” and 0.860.
Turning to `CC1(C)C(/C=C(\Cl)C(F)(F)F)C1C(=O)OC(C#N)c1cccc(Oc2ccccc2)c1` (stereo not drawn) [λ-Cyhalothrin], in data set [1] (at equal level of exposure), the “Concentration in plasma relative to cypermethrin” value is “approximately 10 times” and the “Concentration in plasma relative to permethrin” value is on record as “approximately 100 times”. Besides, in data set [1], the “Exposure level from which detected in plasma” value (shortened to “Exposure level … in plasma”) is 4 µg/kg and the “Slope … in plasma versus level of exposure” value is listed as 116. Moreover, in data set [2], the “Exposure level from which detected in hair” value (“Exposure level … in hair” below) was 20 µg/kg and the “Slope … in hair versus level of exposure” value is listed as 5.050. The “Slope, concentration in white hair versus pigmented hair” value in data set [4] is given as 1.079.
`Oc1c(Cl)c(Cl)c(Cl)c(Cl)c1Cl` [Pentachlorophenol]: the “Slope … in plasma versus level of exposure” value in data set [1] is 2039. In addition, the “Slope … in hair versus level of exposure” value in data set [2] worked out at 169.0. Also, the “Slope … in urine versus level of exposure” value in data set [3] is on record as 82 841. For the same molecule, the “Slope, concentration in white hair versus pigmented hair” value in data set [4] was 0.705.
Take `CCOP(O)(=S)OCC` [DETP, diethylthiophosphate]: the “Slope … in plasma versus level of exposure” value in data set [1] is 3.26. In data set [2], the “Slope … in hair versus level of exposure” value was 10.47. For the same molecule, the “Slope … in urine versus level of exposure” value in data set [3] is reported as 9.9 E + 05. The “Slope, concentration in white hair versus pigmented hair” value in data set [4] came out at 0.608.
For the molecule `Clc1ccc(C(c2ccc(Cl)cc2)C(Cl)(Cl)Cl)cc1` [p,p′-DDT, dichlorodiphenyltrichloroethane], in data set [1], the “Slope … in plasma versus level of exposure” value came to 175. For the same molecule, in data set [2], the “Exposure level … in hair” value came to 20 µg/kg per day and the “Slope … in hair versus level of exposure” value came to 184.7. Moreover, the “Exposure level … in urine” value in data set [3] is on record as 200 µg/kg. The “Slope, concentration in white hair versus pigmented hair” value in data set [4] stood at 0.876.
For `CC(C)Oc1ccccc1O` [2-IPP, 2-isopropoxyphenol], the “Slope … in plasma versus level of exposure” value in data set [1] is given as 10.4. Further, in data set [2], the “Slope … in hair versus level of exposure” value amounted to 26.3. Further, in data set [3], the “Slope … in urine versus level of exposure” value amounted to 1.0 E + 06. Moreover, the “Slope, concentration in white hair versus pigmented hair” value in data set [4] was 0.692.
As for `CC1(C)C(C=C(Cl)Cl)C1C(=O)OCc1cccc(Oc2ccccc2)c1` (stereo not drawn) [Permethrin], in data set [1], the “Exposure level … in plasma” value amounted to 100 µg/kg and the “Slope … in plasma versus level of exposure” value was 1.04.
Turning to `CC1(C)C(C=C(Cl)Cl)C1C(=O)OC(C#N)c1cccc(Oc2ccccc2)c1` (stereo not drawn) [Cypermethrin], in data set [1], the “Exposure level … in plasma” value is on record as 10 µg/kg and the “Slope … in plasma versus level of exposure” value is on record as 10.1. Besides, the “Exposure level … in hair” value in data set [2] is reported as 200 µg/kg. Also, in data set [4], the “Slope, concentration in white hair versus pigmented hair” value stood at 0.495.

Source of the values: PMC5515982, “Hair analysis for the biomonitoring of pesticide exposure: comparison with blood and urine in a rat model” (Archives of Toxicology, 2016).
